Experimental data taken from patent US20230301966A1, “METHOD OF ENHANCING 5-HYDROXYTRYPTOPHAN (5-HTP) EXPOSURE” (Evecxia Therapeutics, Inc., priority 2021, published 2023).
Like-named read-outs stand apart in the source and are kept apart here.

How the values were obtained:
[1] = cited from earlier work
[2] = PK simulation to steady-state at twice-daily dosing by non-parametric superposition (NPS); set-up: species or system human; conditions: plasma 5-HTP, steady-state at twice-daily administration
Source text: Given this T½ for 5-HTP and the known metabolism of 5-HTP by AAAD, non-parametric superpositioning (NPS) pharmacokinetic modeling can be applied to predict steady-state 5-HTP plasma exposure. NPS is an established method known in the field to generally predict steady-state plasma levels of an active pharmaceutical compound. NPS assumes that each dose of an active pharmaceutical compound is metabolized independently of other doses; that the rate and extent of absorption and average systemic clearance are the same for each dosing interval; and that linear pharmacokinetics apply. Based on NPS, the steady-state 5-HTP plasma exposure would be expected to be about 0.25-fold higher (to total about 1.25-fold) than that observed after single-administration. Further, given the T½, steady-state plasma exposure would, according to standard assumptions, be expected to be reached within 5-6 half-lives, i.e., about 1 day.
Plasma pharmacokinetics parameters were estimated using standard Phoenix WinNonlin methods. Data are presented as geometric mean ± SEM. The 5-HTP plasma profiles after single tablet administration of “fast” 5-HTP (250 mg) / low-dose carbidopa (15 mg) tablets following either an FDA high-fat high-calorie meal versus after an FDA moderate-fat, moderate-calorie meal are shown in FIG. 6B. […]

[3] = cited from earlier work; remark: listed apart in the source
[4] = Single-dose pharmacokinetic evaluation of gastroretentive tablets in human healthy volunteers (Example 5); assay type: in vivo; conditions: plasma, oral, 250 mg, single administration, high-fat meal
Description: The “fast” 5-HTP (250 mg) / low-dose carbidopa (0.625 mg, 2.5 mg, 5 mg, or 15 mg) gastroretentive tablets were administered orally to subjects from a cohort totaling 16 healthy subjects in a 5-period open label pharmacokinetics study. The subjects’ mean age was ~50 years (33 to 60 years). All were Caucasian, 11 males, 5 females. Average weight was ~80 kg and all body mass index (BMI) < 32.0 kg/m^2. The subjects were admitted to a clinic during the study. The swelling layer of the tablets was radiolabelled with ≤1 MBq ^111In to allow for parallel scintigraphic location of the tablets in the gastrointestinal tract. The tablets were administered in the morning, one tablet per administration, after ingestion of≥80% of the breakfast. Tablets were administered with 210 mL water followed by a radiolabelled drink (radiocontrast) containing NMT 4 MBq technetium-99m-diethylene triaminepentaacetic acid (99mTc-DTPA) in 30 mL of water. […]
In the first 4 periods, the tablets were administered after a standardized FDA high-fat, high-calorie meal (FDA, 2022), in order of increasing doses of carbidopa. […] The 5-HTP and carbidopa in the plasma were analyzed by liquid-chromatography-mass spectrometry. […]
Carbidopa plasma was below lower limit of quantification (1 ng/ml) at all timepoints at the 0.625 mg carbidopa dose strength, and for most time points at the 2.5 mg carbidopa dose strength. […]

[5] = Excipient compatibility of 5-HTP and carbidopa blends, storage at 40° C; assay type: physicochemical; conditions: for 5-HTP Impurities at T= 1 month (%) Total / Carbidopa Impurities at T= 1 month (%) Total / 5-HTP Impurities at T= 1 month (%) LSI / Carbidopa Impurities at T= 1 month (%) LSI: 1 month at 40° C; for 5-HTP Impurities at T=7 (%) Total / Carbidopa Impurities at T=7 (%) Total / 5-HTP Impurities at T=7 (%) LSI / Carbidopa Impurities at T=7 (%) LSI: 7 days at 40° C; for 5-HTP Impurities at T= 1 month (%) LSI / Carbidopa Impurities at T= 1 month (%) LSI / 5-HTP Impurities at T=7 (%) LSI / Carbidopa Impurities at T=7 (%) LSI / 5-HTP Impurities at T=0 (%) LSI / Carbidopa Impurities at T=0 (%) LSI: largest single impurity
Description: Excipient compatibility studies were performed to examine the stability of 5-HTP and carbidopa mixed together, either the two APIs alone or in the presence of one or two excipients. The stability (assay and level of impurities) was tested using small aliquots of 5-HTP (300 mg) and carbidopa (25 mg) blended together, with or without together excipients. The API/excipient ratios were based on the approximate composition of gastroretentive tablets of 5-HTP and carbidopa in Table 1. There were no significant increases in the levels of impurities for any of the API/excipient(s) combinations at T=0, 7 days and 1 month of storage at 40° C. The maximum percentage increase (largest single impurity) for carbidopa was 0.44%, 0.55%, and 0.86% at T=0, 7 days and 1 month, respectively. The maximum percentage increase for 5-HTP was 0.27%, 0.48%, and 0.49% at T=0, 7 days and 1 month, respectively.

SMILES	5-HTP Impurities at T= 1 month (%) Total [5] [%]	Carbidopa Impurities at T= 1 month (%) Total [5] [%]	5-HTP Impurities at T=7 (%) Total [5] [%]	Carbidopa Impurities at T=7 (%) Total [5] [%]	5-HTP Impurities at T=0 (%) Total [5] [%]	Carbidopa Impurities at T=0 (%) Total [5] [%]	5-HTP Impurities at T= 1 month (%) LSI [5] [%]	Carbidopa Impurities at T= 1 month (%) LSI [5] [%]	5-HTP Impurities at T=7 (%) LSI [5] [%]	Carbidopa Impurities at T=7 (%) LSI [5] [%]	5-HTP Impurities at T=0 (%) LSI [5] [%]	Carbidopa Impurities at T=0 (%) LSI [5] [%]	aqueous solubility [3]	further results
N[C@@H](Cc1ccc(O)c(O)c1)C(=O)O [L-DOPA]	–	–	–	–	–	–	–	–	–	–	–	–	–	time for L-DOPA plasma exposure to reach steady-state ([1]; L-DOPA/carbidopa therapy, 600-1200 mg/day and 120-150 mg/day): less than 12 h
N[C@@H](Cc1c[nH]c2ccc(O)cc12)C(=O)O [Sample 5-HTP, 5-hydroxytryptophan]	–	–	–	–	–	–	–	–	–	–	–	–	~ 15 mg/ml	Relative steady-state average plasma exposure (average ng/ml gastroretentive /average ng/ml immediate release) [2]: 1; half-life ([4]; read-out: Elimination half-life (Average) 5-HTP (converted)): 2.9 h; Tmax ([4]; read-out: TMax (Average) 5-HTP): 1 h; 5-HTP plasma exposure ([1]; 200 mg/day carbidopa with 1,150-2,900 mg/day 5-HTP, separate IR dosage forms, after 8-54 months (Magnussen and Van Woert, 1982b)): 2,000-10,000 ng/ml; Tmax ([1]; native 5-HTP immediate release): ~ 1 h; half-life T½ ([1]; native 5-HTP immediate release): ~ 2 h; oral bioavailability ([1]; native 5-HTP immediate release, one study (WO2019245925)): ~ 20%; bioavailability in the colon ([1]; one study (WO2019245925)): ~ 4%; bioavailability in the upper intestine ([1]; one study (WO2019245925)): ~ 20%
C[C@@](Cc1ccc(O)c(O)c1)(NN)C(=O)O [carbidopa]	–	–	–	–	–	–	–	–	–	–	–	–	~ 1.5 mg/ml	T½ ([1]; known value): 1 to 2 h

Now from value to compound, other results behind:

5-HTP Impurities at T= 1 month (%) Total [5] [%]	Carbidopa Impurities at T= 1 month (%) Total [5] [%]	5-HTP Impurities at T=7 (%) Total [5] [%]	Carbidopa Impurities at T=7 (%) Total [5] [%]	5-HTP Impurities at T=0 (%) Total [5] [%]	Carbidopa Impurities at T=0 (%) Total [5] [%]	5-HTP Impurities at T= 1 month (%) LSI [5] [%]	Carbidopa Impurities at T= 1 month (%) LSI [5] [%]	5-HTP Impurities at T=7 (%) LSI [5] [%]	Carbidopa Impurities at T=7 (%) LSI [5] [%]	5-HTP Impurities at T=0 (%) LSI [5] [%]	Carbidopa Impurities at T=0 (%) LSI [5] [%]	SMILES	aqueous solubility [3]	further results
0.26	0.00	0.23	0.00	0.23	0.00	0.12	0.00	0.12	0.00	0.13	0.00	N[C@@H](Cc1c[nH]c2ccc(O)cc12)C(=O)O [Sample 17, 5-HTP (control)]	–	–
0.00	0.79	0.00	0.45	0.00	0.41	0.00	0.27	0.00	0.28	0.00	0.27	C[C@@](Cc1ccc(O)c(O)c1)(NN)C(=O)O [Sample 18, Carbidopa (control)]	–	–
